According to patent US20190046446A1, “APO-E MODIFIED LIPID NANOPARTICLES FOR DRUG DELIVERY TO TARGETED TISSUES AND THERAPEUTIC METHODS” (Eriochem USA, LLC, priority 2016, published 2019):
Several values for one entry are separate records, joined by “and”; a condition that tells them apart may be missing. Identical values can stand only once. Like-named read-outs stand apart in the source and are kept apart here.

How the values were obtained:
[1] = Pharmacokinetics of Docetaxel in plasma of rabbits; format: in vivo, New Zealand rabbits; conditions: iv, 2.5 mg/kg DCX; for half-life: New Zealand, rabbit, 2.5 mg/kg
Protocol: Changes in plasma drug concentration reflect changes in drug concentrations at the receptor site, as well as in other tissues.
The formulations were administered intravenously at doses equivalent to 2.5 mg/kg of DCX in each. […] Blood samples were taken at 0.5, 2, 8, and 24 hours from each animal in Groups A and C, and at 1, 4, 12, and 32 hours for each animal in Groups B and D. Then, the samples were pre-treated for analysis—the proteins were precipitated with acetonitrile and then extracted with a solid phase (SPE), evaporated, and resuspended for analysis. […] Any adjustment of the experimental data was performed by weighted nonlinear regression of at least squares using a bi-exponential descriptive model.
For this study, kd and kel were interpreted as the first order apparent distribution and elimination constants, respectively, and C1 and C2 were the coefficients of the adjustment model.
From the estimated values of C1, kd, C2, and kel, the following pharmacokinetic parameters were calculated, as shown in Table 10 below.
Clearance (CI) refers to the volume of blood that has completely cleared of the drug/unit time when it passes through a clearing organ.

[2] = Liver accumulation of Docetaxel in rabbits; format: in vivo; conditions: iv, 2.5 mg/kg DCX
Protocol: In measuring the liver accumulation, the animals were randomly divided into four groups following the above plasma assay. The groups were as follows:
The livers of the rabbits were totally removed at 24 hours and 36 hours, then weighed, frozen and stored at […]. The rabbit liver samples were precipitated with acetonitrile, followed by solid phase extraction (SPE), evaporation and resuspension of the resulting extract in a solvent and then analyzed by injection into LC ESI MS/MS. The determinations were performed by liquid chromatography and mass spectrometry (using a Shimadzu UFLC XR liquid chromatograph coupled to a AB Sciex 3200 QTrap mass spectrometer).
Values are Media±SEM. (N=5).

[3] = In vitro drug release by dialysis against human plasma; format: in vitro ADME; conditions: dialysis against 10% human plasma, 37° C., up to 72 hours
Protocol: Drug release kinetics were evaluated in vitro by comparing solutions containing:
The respective solution samples were placed in 12 KDa dialysis bags and dialyzed against a 10% V/V solution of human plasma for 72 hours at 37° C. in an orbital shaker with constant agitation at 60 rpm. Assays were then performed in triplicate, with samples taken from each solution at 0, 1, 2, 3, 6, 9, 24, 48, and 72 hours after dialysis initiation. […] The recovered organic phase was dried in a rotary evaporator, and the obtained dry material was resuspended in acetonitrile for further HPLC analysis.

[4] = test system: New Zealand rabbits; assay: Hepatic toxicity (GGT and GOT determination); format: in vivo; conditions: iv, DCX 2.5 mg/kg or equivalent, 24 hours after inoculation
Protocol: The experiment was carried out using New Zealand rabbits kept in facilities under controlled environmental conditions (temperature of 22° C.+3° C.; 12-hour light/dark cycle) and with free access to food and water. Acclimatization was performed for a minimum of 10 days prior to the start of the experiment. Each animal weighted approximately 2.8 kg and was distributed into a group of 5 animals each.
Formulations were administered intravenously (in marginal ear vein) into rabbits that had previously been intravenously injected with a combination of Ketamine-Xylazine-Acepromazine. Amounts of Gamma glutamil transaminase (GGT) and glutamic-oxaloacetic transaminase (GOT) were determined in plasma of the rabbits 24 hours after inoculation with the formulation. The results of each sample were statistically analyzed with ANOVA and Duncan Test using SPSS 11.0.

[5] = test system: VERO (monkey kidney epithelial cells); assay: In vitro cytotoxicity assay (MTS), VERO; format: cell-based
[6] = test system: rabbits
[7] = test system: human plasma proteins; conditions: cited from earlier work
[8] = in vivo; cited from earlier work
[9] = test system: New Zealand rabbits; assay: Blood counts (hemogram) in rabbits; conditions: iv, 3 cycles every 7 days;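 note: compound given into the marginal ear vein under ketamine-xylazine-acepromazine anesthesia, blood drawn from the ear central artery after sedation, seven samplings from one day before to day 20 after first dose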
Protocol: The intravenous administration was performed in the marginal ear vein and previously rabbits underwent anesthesia intramuscular injection by a combination of Ketamine-Xylazine-Acepromazine (2.4 mg/kg acepromazine, 48 mg/kg Ketamine and 5 mg/kg xylazine)
Blood samples were taken from the central artery of the ear, after sedation. A total of 7 samples were taken for each rabbit, and samples were taken a day before the first doses (−1), and on days 1, 6, 8, 13, 15 and 20 after the first dose.

Q: For CC(=O)O[C@@]12CO[C@@H]1C[C@H](O)[C@@]1(C)C(=O)[C@H](O)C3=C(C)[C@@H](OC(=O)[C@H](O)[C@@H](NC(=O)OC(C)(C)C)c4ccccc4)C[C@@](O)([C@@H](OC(=O)c4ccccc4)[C@H]21)C3(C)C [TAXOTERE, Docetaxel], which half-life ([1]; read-out: t1/2e1: Elimination half-life (converted)) is on record?
A: 19.7 h

Q: What about the half-life ([1]; read-out: t1/2d: Distribution half-life (converted)) of the same molecule?
A: 0.54 h

Q: And the “ABC0-∞: Area under the curve from time zero to infinity” value [1]?
A: 1152.0 ng·h/mL

Q: What about the “ABCex: Percentage of area under the curve extrapolated to infinity” value [1] of the same molecule?
A: 26.0%

Q: And the “ABCtz-∞: Area under the curve from the last sampling time to infinity” value [1]?
A: 299.0 ng·h/mL

Q: What about the “C1: Coefficient of the first exponential term” value [1] of the same molecule?
A: 295.1 ng/mL

Q: What about the “C2: Coefficient of the second exponential term” value [1] of the same molecule?
A: 32.5 ng/mL

Q: And the “Cz: Coefficient of last exponential term” value [1]?
A: 10.52 ng/mL

Q: What about the “kd: first order apparent distribution constant” value [1] of the same molecule?
A: 0.000356 s⁻¹

Q: What about the “ke1: first order apparent elimination constant” value [1] of the same molecule?
A: 0.035 h⁻¹

Q: What about the “DCX Concentration in Liver” value ([2]; 24 hours) of the same molecule?
A: 446 ± 66

Q: What about the “DCX Concentration in Liver” value ([2]; 36 hours) of the same molecule?
A: 495 ± 126

Q: What about the “Docetaxel release, comparison between solutions” value [3] of the same molecule?
A: released more decetaxel than the lipid nanoparticles

Q: What about the “GGT concentration in plasma” value [4] of the same molecule?
A: No significant differences

Q: What about the “GOT concentration in plasma” value [4] of the same molecule?
A: O significant differences

Q: What about the IC50 ([5]; Normal Serum, 48 hours, listed as DCX, read-out: IC50 in VERO, individual tests) of the same molecule?
A: 145 nM and 140 nM and 150 nM

Q: What about the IC50 ([5]; Primates, Vero, 48 h, Normal Serum, 48 hours, read-out: IC50 in VERO, individual tests) of the same molecule?
A: 136 nM

Q: What about the IC50 ([5]; Primates, Vero, 48 h, Serum Free of Lipoprotein, 48 hours, read-out: IC50 in VERO, individual tests) of the same molecule?
A: 138 nM

Q: And the IC50 ([5]; Primates, Vero, LP-FREE SERUM, Table 18, read-out: IC50 Normal Cell (Vero))?
A: 129 nM

Q: What about the IC50 ([5]; Primates, Vero, NORMAL SERUM, Table 18, read-out: IC50 Normal Cell (Vero)) of the same molecule?
A: 143 nM

Q: And the IC50 ([5]; Primates, Vero, Normal Serum, average of tests, read-out: IC50 in VERO)?
A: 143 ± 2.9 nM

Q: And the IC50 ([5]; Primates, Vero, Serum Free of Lipoprotein, average of tests, read-out: IC50 in VERO)?
A: 129 ± 8.06 nM

Q: What about the IC50 ([5]; Serum Free of Lipoprotein, 48 hours, listed as DCX, read-out: IC50 in VERO, individual tests) of the same molecule?
A: 106 nM (2×) and 140 nM and 153 nM and 152 nM and 111 nM

Q: And the “signs after day 12” value ([6]; rabbit, in vivo, 3.2 mg/kg)?
A: anorexia and adipsia

Q: What about the “dead animals after the first cycle of inoculation” value ([6]; rabbits, 3.2 mg/kg Docetaxel) of the same molecule?
A: dead animals were found

Q: What about the “dead animals after the second cycle of inoculation” value ([6]; rabbits, 3.2 mg/kg Docetaxel) of the same molecule?
A: dead animals were found

Q: What about the mortality / lethality ([6]; rabbits, 3.2 mg/kg Docetaxel (4 ml/kg), three cycles) of the same molecule?
A: 80%

Q: What about the “free Docetaxel (fu)” value ([7]; at 1.24 μM (1 μg/ml) plasma serum) of the same molecule?
A: 0.082 µM

Q: And the “bound to plasma proteins” value ([7]; ultrafiltration at 37° C. and pH 7.4)?
A: > 98%

Q: What about the “incidence of reactions of unpredictable acute toxicity” value [8] of the same molecule?
A: 5-60%

Q: What about the Hematocrit ([9]; Sample 1 (day -1)) of the same molecule?
A: 40%

Q: And the MCH ([9]; Sample 1 (day -1))?
A: 20 pg

Q: What about the MCHC ([9]; Sample 1 (day -1)) of the same molecule?
A: 28 g/dL

Q: What about the MCV ([9]; Sample 1 (day -1)) of the same molecule?
A: 71 fL

Q: What about the “Red Cells” value ([9]; Sample 1 (day -1)) of the same molecule?
A: 5.7 × 10^6/mm^3

Q: What about the “White Blood Cells” value ([9]; Sample 1 (day -1)) of the same molecule?
A: 6720 /mm

Q: What about the Hematocrit ([9]; Sample 2 (day 1)) of the same molecule?
A: 37%

Q: What about the MCH ([9]; Sample 2 (day 1)) of the same molecule?
A: 20 pg

Q: And the MCHC ([9]; Sample 2 (day 1))?
A: 28 g/dL

Q: What about the MCV ([9]; Sample 2 (day 1)) of the same molecule?
A: 71 fL

Q: What about the “Red Cells” value ([9]; Sample 2 (day 1)) of the same molecule?
A: 5.2 × 10^6/mm^3

Q: What about the “White Blood Cells” value ([9]; Sample 2 (day 1)) of the same molecule?
A: 6175 /mm

Q: And the Hematocrit ([9]; Sample 3 (day 6))?
A: 37%

Q: And the MCH ([9]; Sample 3 (day 6))?
A: 20 pg

Q: And the MCHC ([9]; Sample 3 (day 6))?
A: 28 g/dL

Q: What about the MCV ([9]; Sample 3 (day 6)) of the same molecule?
A: 70 fL

Q: What about the “Red Cells” value ([9]; Sample 3 (day 6)) of the same molecule?
A: 5.2 × 10^6/mm^3

Q: And the “White Blood Cells” value ([9]; Sample 3 (day 6))?
A: 3800 /mm

Q: And the Hematocrit ([9]; Sample 4 (day 8))?
A: 39%

Q: And the MCH ([9]; Sample 4 (day 8))?
A: 19 pg

Q: What about the MCHC ([9]; Sample 4 (day 8)) of the same molecule?
A: 25 g/dL

Q: What about the MCV ([9]; Sample 4 (day 8)) of the same molecule?
A: 69 fL

Q: And the “Red Cells” value ([9]; Sample 4 (day 8))?
A: 5.6 × 10^6/mm^3

Q: What about the “White Blood Cells” value ([9]; Sample 4 (day 8)) of the same molecule?
A: 3500 /mm

Q: And the Hematocrit ([9]; Sample 5 (day 13))?
A: 24%

Q: And the MCH ([9]; Sample 5 (day 13))?
A: 19 pg

Q: What about the MCHC ([9]; Sample 5 (day 13)) of the same molecule?
A: 28 g/dL

Q: And the MCV ([9]; Sample 5 (day 13))?
A: 69 fL

Q: And the “Red Cells” value ([9]; Sample 5 (day 13))?
A: 3.9 × 10^6/mm^3

Q: And the “White Blood Cells” value ([9]; Sample 5 (day 13))?
A: 4000 /mm

Q: And the Hematocrit ([9]; Sample 6 (day 15))?
A: 31%

Q: And the MCH ([9]; Sample 6 (day 15))?
A: 20 pg

Q: What about the MCHC ([9]; Sample 6 (day 15)) of the same molecule?
A: 29 g/dL

Q: What about the MCV ([9]; Sample 6 (day 15)) of the same molecule?
A: 70 fL

Q: And the “Red Cells” value ([9]; Sample 6 (day 15))?
A: 4.4 × 10^6/mm^3

Q: And the “White Blood Cells” value ([9]; Sample 6 (day 15))?
A: 5500 /mm

Q: What about the Hematocrit ([9]; Sample 7 (day 20)) of the same molecule?
A: 19%

Q: And the MCH ([9]; Sample 7 (day 20))?
A: 20 pg

Q: What about the MCHC ([9]; Sample 7 (day 20)) of the same molecule?
A: 44 g/dL

Q: What about the MCV ([9]; Sample 7 (day 20)) of the same molecule?
A: 45 fL

Q: And the “Red Cells” value ([9]; Sample 7 (day 20))?
A: 4.2 × 10^6/mm^3

Q: What about the “White Blood Cells” value ([9]; Sample 7 (day 20)) of the same molecule?
A: 2900 /mm
